Laboratory results published in ChEMBL document CHEMBL6153157, “Novel 3-Aminothieno[2,3-b]pyridine-2-carboxamides with Activity against Mycobacterium tuberculosis” (ACS Med Chem Lett, 2025).

What was measured:
[1] = system: Mycobacterium tuberculosis; assay: Antibacterial activity against wild type Mycobacterium tuberculosis H37Rv-LP DREAM8 strain expressing codon-optimized DsRed assessed growth inhibition incubated for 5 days by fluorescence spectrophotometric assay; format: functional; details: H37Rv-LP DREAM8, 120 h, time 5 day
[2] = Cytotoxicity against human HepG2 cells assessed as cell growth inhibition incubated for 3 days by CellTiter-Glo reagent-based luminescence assay; format: toxicity
[3] = Selectivity index, ratio of IC50 for cytotoxicity against human HepG2 cells to IC90 for antibacterial activity against wild type Mycobacterium tuberculosis H37Rv-LP DREAM8 strain expressing codon-optimized DsRed; format: toxicity, cell-based

Compound | IC90 [1] | IC50 at 3 days [2] | selectivity ratio [3]
COc1ccc(-c2cc(C(F)(F)F)c3c(N)c(C(=O)NCCSC)sc3n2)cc1 | 41 µM | > 100 µM | –
Nc1c(C(=O)N2CCOCC2)sc2nc(-c3ccccc3)ccc12 | > 100 µM | 56 µM | –
CN(C)C(=O)c1sc2ncccc2c1N | > 100 µM | > 100 µM | –
Nc1c(C(=O)N2CCOCC2)sc2ncccc12 | > 100 µM | > 100 µM | –
Nc1c(C(=O)Nc2ccccc2F)sc2nc(-c3ccccc3)cc(C(F)(F)F)c12 | > 100 µM | > 100 µM | –
COc1ccc(-c2cc(C(F)(F)F)c3c(N)c(C(=O)Nc4ccccc4)sc3n2)cc1 | > 100 µM | > 100 µM | –
COc1ccc(-c2ccc3c(N)c(C(=O)N4CCOCC4)sc3n2)cc1 | > 100 µM | 63 µM | –
Nc1c(C(=O)Nc2ccccc2C(F)(F)F)sc2nc(-c3ccccc3)cc(C(F)(F)F)c12 | > 100 µM | 97 µM | –
Nc1c(C(=O)N2CCOCC2)sc2nc(-c3cccnc3)ccc12 | > 100 µM | > 100 µM | –
Cc1cccc(NC(=O)c2sc3nc(-c4cccs4)cc(C(F)(F)F)c3c2N)c1 | > 100 µM | 32 µM | –
Nc1c(C(=O)N2CCCC2)sc2nc(-c3ccc4c(c3)OCO4)cc(C(F)(F)F)c12 | > 100 µM | > 100 µM | –
Cc1cccc(NC(=O)c2sc3nc(-c4ccco4)cc(C(F)(F)F)c3c2N)c1C | > 100 µM | > 100 µM | –
COC1CN(C(=O)c2sc3nc(-c4ccccc4)ccc3c2N)C1 | > 100 µM | 38 µM | –
Nc1c(C(=O)NCc2ccccc2)sc2nc(-c3ccccc3)ccc12 | > 100 µM | > 100 µM | –
COc1ccc(-c2cc(C(F)(F)F)c3c(N)c(C(=O)Nc4cccc(C)c4C)sc3n2)cc1OC | > 100 µM | 42 µM | –
Cc1cccc(NC(=O)c2sc3nc(-c4cccs4)cc(C(F)(F)F)c3c2N)c1C | > 100 µM | > 100 µM | –
COc1ccc(-c2cc(C(F)(F)F)c3c(N)c(C(=O)NC4CC4)sc3n2)cc1 | > 100 µM | > 100 µM | –
COc1ccc(-c2cc(C(F)(F)F)c3c(N)c(C(=O)Nc4cccc(C)c4C)sc3n2)cc1 | 1.1 µM | 44 µM | –
COc1ccc(-c2cc(C(F)(F)F)c3c(N)c(C(=O)NC4CCC(c5ccc(C(C)(C)C)cc5)CC4)sc3n2)cc1 (stereo not given) | > 10 µM | > 10 µM | –
Nc1c(C(=O)N2CCOCC2)sc2nc(Cl)ccc12 | > 100 µM | > 100 µM | –
COC1CN(C(=O)c2sc3ncccc3c2N)C1 | > 100 µM | > 100 µM | –

Compound | IC90 [1] | IC50 at 3 days [2] | selectivity ratio [3]
COc1ccc(-c2cc(C(F)(F)F)c3c(N)c(C(=O)Nc4cccc(C)c4F)sc3n2)cc1 | > 100 µM | 42 µM | –
Cc1cccc(CNC(=O)c2sc3nc(-c4ccc5c(c4)OCO5)cc(C(F)(F)F)c3c2N)c1C | > 100 µM | 44 µM | –
Nc1c(C(=O)NCc2ccccc2)sc2ncccc12 | > 100 µM | > 100 µM | –
CN(C)C(=O)c1sc2nc(-c3ccccc3)ccc2c1N | > 100 µM | > 100 µM | –
COc1ccc(-c2cc(C(F)(F)F)c3c(N)c(C(=O)Nc4c(C)cccc4C)sc3n2)cc1 | > 100 µM | > 100 µM | –
COc1ccc(-c2cc(C(F)(F)F)c3c(N)c(C(=O)NC45CC(C4)C5)sc3n2)cc1 | > 50 µM | 36 µM | < 1
Nc1c(C(=O)N2CCOCC2)sc2nc(-c3ccc(F)cc3)ccc12 | > 100 µM | 41 µM | –
Cc1ccc(NC(=O)c2sc3nc(-c4ccccc4)cc(C(F)(F)F)c3c2N)cc1 | > 100 µM | 24 µM | –
CCNC(=O)c1sc2nc(-c3ccc(Cl)cc3Cl)cc(C(F)(F)F)c2c1N | > 100 µM | 36 µM | –
COc1ccc(-c2cc(C)c3c(N)c(C(=O)Nc4cccc(C)c4C)sc3n2)cc1 | > 100 µM | 27 µM | –
COc1ccc(-c2cc(C(F)(F)F)c3c(N)c(C(=O)N4CC(C)OC(C)C4)sc3n2)cc1 (stereo not given) | > 50 µM | 44 µM | < 1
CCN(CC)C(=O)c1sc2ncccc2c1N | > 100 µM | > 100 µM | –
Nc1c(C(=O)NC23CC4CC(CC(C4)C2)C3)sc2nc(-c3ccc4c(c3)OCO4)cc(C(F)(F)F)c12 | 0.68 µM | 81 µM | –
Nc1c(C(=O)N2CCOCC2)sc2nc(-c3ccoc3)ccc12 | > 100 µM | 50 µM | –
COc1ccc(-c2cc(C(F)(F)F)c3c(N)c(C(=O)N4CC5(CCOC5)C4)sc3n2)cc1 | > 50 µM | 33 µM | < 1
COc1ccc(-c2cc(C(F)(F)F)c3c(N)c(C(=O)Nc4cccc(C)c4OC)sc3n2)cc1 | > 100 µM | > 100 µM | –
Cc1cccc(NC(=O)c2sc3nc(-c4ccc5c(c4)OCO5)cc(C(F)(F)F)c3c2N)c1C | 0.94 µM | 46 µM | –
Nc1c(C(=O)Nc2cccnc2)sc2nc(-c3ccccc3)cc(C(F)(F)F)c12 | > 100 µM | > 100 µM | –
Cc1ccc(-c2cc(C(F)(F)F)c3c(N)c(C(=O)Nc4cccc(C)c4C)sc3n2)cc1 | > 100 µM | 60 µM | –
COCCNC(=O)c1sc2nc(-c3ccc(OC)cc3)cc(C(F)(F)F)c2c1N | > 100 µM | > 100 µM | –
Nc1c(C(=O)N2CC(F)(F)C2)sc2ncccc12 | > 100 µM | > 100 µM | –

Compound | IC90 [1] | IC50 at 3 days [2] | selectivity ratio [3]
COc1ccc(-c2cc(C(F)(F)F)c3c(N)c(C(=O)N4CC(OC)C4)sc3n2)cc1 | > 100 µM | 50 µM | < 1
COc1ccc(-c2cc(C(F)(F)F)c3cc(C(=O)NC(C)c4ccccc4)sc3n2)cc1 (stereo not given) | 2.5 µM | > 100 µM | –
COc1ccc(-c2cc(C(F)(F)F)c3c(N)c(C(=O)N4CCCCC4)sc3n2)cc1 | > 100 µM | > 100 µM | –
COc1ccc(-c2cc(C(F)(F)F)c3c(N)c(C(=O)N4CCC4)sc3n2)cc1 | > 100 µM | 62 µM | < 1
COc1ccc(-c2cc(C(F)(F)F)c3c(N)c(C(=O)Nc4cccc(C)c4C)sc3n2)cn1 | 1.4 µM | 31 µM | –
Nc1c(C(=O)NCc2ccc(F)cc2)sc2nc(-c3ccccc3)ccc12 | > 100 µM | > 100 µM | –
COc1ccc(-c2cc(C(F)(F)F)c3c(N)c(C(=O)NC4COC4)sc3n2)cc1 | > 100 µM | > 100 µM | –
COc1ccc(-c2cc(C(F)(F)F)c3c(N)c(C(=O)N4C5CCCC4COC5)sc3n2)cc1 | > 100 µM | 42 µM | < 1
COc1ccc(-c2cc(C(F)(F)F)c3c(N)c(C(=O)Nc4ccc(C)cc4C)sc3n2)cc1 | > 100 µM | > 100 µM | –
COc1cccc(-c2cc(C(F)(F)F)c3c(N)c(C(=O)Nc4cccc(C)c4C)sc3n2)c1 | > 100 µM | 52 µM | –
COc1ccc(-c2ccc3c(N)c(C(=O)N4CCOCC4)sc3n2)cc1OC | > 100 µM | > 100 µM | –
COc1ccc(-c2cc(C(F)(F)F)c3c(N)c(C(=O)N4CC(F)(F)C4)sc3n2)cc1 | > 50 µM | > 50 µM | < 1
COc1ccc(-c2ccc3c(N)c(C(=O)Nc4cccc(C)c4C)sc3n2)cc1 | > 100 µM | > 100 µM | –
COc1ccc(-c2cc(C(F)(F)F)c3c(N)c(C(=O)N4CCCC4)sc3n2)cc1 | > 50 µM | > 50 µM | –
Nc1c(C(=O)NCc2ccc(F)cc2)sc2ncccc12 | > 100 µM | > 100 µM | –
COc1ccc(-c2cc(C(F)(F)F)c3c(N)c(C(=O)N4CCCC4(C)C)sc3n2)cc1 | > 100 µM | 78 µM | < 1
Nc1c(C(=O)N2CC(F)(F)C2)sc2nc(-c3ccccc3)ccc12 | > 100 µM | 38 µM | –
Cc1ccc(NC(=O)c2sc3nc(C)cc(C(F)(F)F)c3c2N)cc1 | > 100 µM | 31 µM | –
Cc1cccc(NC(=O)c2sc3nc(-c4ccccc4)cc(C(F)(F)F)c3c2N)c1C | > 100 µM | > 100 µM | –
